Source: patent publication US20130331738A1, “COMPOSITIONS AND METHODS FOR POTENTIATING SONOTHROMBOLYSIS” (Board of Trustees University of Arkansas, priority 2012, published 2013)

System: rabbit blood clots
Assay: In vitro sonothrombolysis of rabbit blood clots in a Mylar flow chamber infused with serum
Settings: CPDL 0.001% w/V added to the MB suspension, complete absence of tPA
Experimental: To assess the combined effect of ultrasound in combination with tPA, a tissue permeabilizer, and microbubbles (MBs) on the efficacy of sonothrombolysis, the following experiment was conducted. Sonothrombolysis was performed on rabbit blood clots situated in a Mylar flow chamber (37.0° C.) infused with serum. In addition, tPA was introduced into the flow chamber at several initial concentrations ranging from 0.0 mg/mL to 0.2 mg/mL. At each tPA concentration, the ultrasound delivery parameters were adjusted to maximize the efficacy of sonothrombolysis of the clots. The efficacy of sonothrombolysis was assessed by determining the % clot mass loss per minute within the flow chamber. The ultrasound delivery parameters that were adjusted in this experiment included pulsed ultrasound intensity (0.1-2.0 W/cm2), ultrasound frequency (0.7-4 MHz), and duty factor (0.05-100%).
Once the ultrasound delivery parameters were established for each tPA concentration, uniformly-sized MBs having diameters ranging from about […] were then added to the flow chamber; the concentration and elasticity of the MBs were adjusted while reducing tPA in order to maintain the initial % clot mass loss per minute. […]

Compound: O=C1CCCCCCCCCCCCCCO1 [CPDL, cyclopentadecanolide]
- increase of efficacy of sonothrombolysis (% clot mass loss per minute): six-fold
